Values after ≈ are worked out from the molar mass of the structure shown.
Columns and labels:
Type in all cases: functional
Staphylococcus aureus [1] = test: Antibacterial activity against penicillin-susceptible Staphylococcus aureus ATCC 25923 after 24 hrs by broth microdilution method; conditions: ATCC 25923, 24 h
Staphylococcus aureus [2] = test: Antibacterial activity against methicillin-resistant Staphylococcus aureus ATCC 43300 after 24 hrs by broth microdilution method; conditions: ATCC 43300, 24 h
Staphylococcus aureus [3] = test: Antibacterial activity against penicillin-resistant Staphylococcus aureus clinical isolate after 24 hrs by broth microdilution method
[4] = test system: Staphylococcus epidermidis; test: Antibacterial activity against penicillin-resistant Staphylococcus epidermidis clinical isolate after 24 hrs by broth microdilution method
Streptococcus pyogenes [5] = test: Antibacterial activity against penicillin-susceptible Streptococcus pyogenes after 24 hrs by broth microdilution method
Streptococcus pyogenes [6] = test: Antibacterial activity against penicillin-resistant Streptococcus pyogenes after 24 hrs by broth microdilution method
Bacillus subtilis = test: Antibacterial activity against penicillin-susceptible Bacillus subtilis ATCC 9372 after 24 hrs by broth microdilution method; conditions: ATCC 9372, 24 h
Bacillus pumilus = test: Antibacterial activity against penicillin-susceptible Bacillus pumilus ATCC 63202 after 24 hrs by broth microdilution method; conditions: ATCC 63202, 24 h
Escherichia coli = test: Antibacterial activity against penicillin-susceptible Escherichia coli ATCC 25922 after 24 hrs by broth microdilution method; conditions: ATCC 25922, 24 h
Pseudomonas aeruginosa = test: Antibacterial activity against penicillin-susceptible Pseudomonas aeruginosa ATCC 27853 after 24 hrs by broth microdilution method; conditions: ATCC 27853, 24 h
Staphylococcus aureus [7] = test: Bactericidal activity against penicillin-susceptible Staphylococcus aureus ATCC 25923 after 24 hrs by flat colony counting method; conditions: ATCC 25923, 24 h

SMILES	MIC (Staphylococcus aureus [1]) [µg/mL]	MIC (Staphylococcus aureus [2]) [µg/mL]	MIC (Staphylococcus aureus [3]) [µg/mL]	MIC [4] [µg/mL]	MIC (Streptococcus pyogenes [5]) [µg/mL]	MIC (Streptococcus pyogenes [6]) [µg/mL]	MIC (Bacillus subtilis) [µg/mL]	MIC (Bacillus pumilus) [µg/mL]	MIC (Escherichia coli) [µg/mL]	MIC (Pseudomonas aeruginosa) [µg/mL]	MBC (Staphylococcus aureus [7]) [µg/mL]
COc1cc(-c2ccc(OC(F)(F)F)cc2)cc2c3ccccc3c[n+](C)c12.[Cl-]	1	4	8	16	2	16	4	2	> 64	> 64	32
COc1ccc(-c2cc(OC)c3c(c2)c2ccccc2c[n+]3C)cc1.[Cl-]	16	32	64	16	4	8	2	8	> 64	> 64	> 64
C[n+]1cc2ccccc2c2cc(-c3ccccc3)ccc21.[Cl-]	32	16	64	16	4	16	4	16	> 64	> 64	> 64
Cc1ccc(-c2ccc3c(c2)c2ccccc2c[n+]3C)cc1.[Cl-]	8	16	16	32	4	16	2	8	> 64	> 64	> 64
COc1ccc(-c2ccc3c(c2)c2ccccc2c[n+]3C)cc1.[Cl-]	4	64	64	64	4	16	4	16	> 64	> 64	> 64
COc1cc(/C=C/C(=O)CC(=O)/C=C/c2ccc(O)c(OC)c2)ccc1O [CURCUMIN]	32 (≈ 86.9 µM)	64 (≈ 174 µM)	> 64	> 64	> 64	–	32 (≈ 86.9 µM)	32 (≈ 86.9 µM)	> 64	> 64	–
COc1cc(-c2ccc(C(F)(F)F)cc2)cc2c3ccccc3c[n+](C)c12.[Cl-]	2	4	8	8	0.5	8	1	2	> 64	> 64	32
COc1cc(-c2ccc(-c3ccccc3)cc2)cc2c3ccccc3c[n+](C)c12.[Cl-]	1	4	4	8	1	16	2	2	> 64	> 64	16
COc1cc(-c2cccc(C(F)(F)F)c2)cc2c3ccccc3c[n+](C)c12.[Cl-]	2	8	8	4	4	8	4	4	> 64	> 64	32
Cc1onc(-c2ccccc2)c1C(=O)N[C@@H]1C(=O)N2[C@@H]1SC(C)(C)[C@@H]2C(=O)[O-].[Na+]	4	> 64	> 64	> 64	1	> 64	4	32	> 64	> 64	–
C[n+]1cc2ccccc2c2cc(-c3ccc(OC(F)(F)F)cc3)ccc21.[Cl-]	4	64	64	16	4	32	2	8	> 64	> 64	64
C[n+]1cc2ccccc2c2cc(-c3cccc(C(F)(F)F)c3)ccc21.[Cl-]	8	16	16	8	16	8	16	16	> 64	> 64	> 64
C[n+]1cc2ccccc2c2cc(-c3ccc(-c4ccccc4)cc3)ccc21.[Cl-]	8	64	8	> 64	2	64	8	16	> 64	> 64	> 64
C[n+]1cc2ccccc2c2cc(-c3ccc(C(F)(F)F)cc3)ccc21.[Cl-]	8	16	16	> 64	2	16	4	8	> 64	> 64	> 64
COc1cc(-c2ccc(C)cc2)cc2c3ccccc3c[n+](C)c12.[Cl-]	4	4	16	16	2	8	0.5	2	> 64	> 64	64
COc1cc(-c2ccccc2)cc2c3ccccc3c[n+](C)c12.[Cl-]	16	8	64	4	2	8	1	4	> 64	> 64	> 64
COc1cc(-c2ccccc2C(F)(F)F)cc2c3ccccc3c[n+](C)c12.[Cl-]	8	16	16	16	16	16	16	16	> 64	> 64	> 64
C[n+]1cc2ccccc2c2cc(-c3ccccc3C(F)(F)F)ccc21.[Cl-]	16	32	32	32	64	32	32	32	> 64	> 64	> 64

Source: ChEMBL document CHEMBL4118132, “Novel 5-methyl-2-phenylphenanthridium derivatives as FtsZ-targeting antibacterial agents from structural simplification of natural product sanguinarine” (2018)
